# Measurements as given in patent publication US20230320995A1, “IONIZABLE CATIONIC LIPIDS AND LIPID NANOPARTICLES” (CAPSTAN THERAPEUTICS, INC., priority 2022, published 2023).
# Where two headings read alike, the source gives them in different places.
# What was measured:
# [1] = apparent pKa of ionizable lipid in lipid nanoparticle, TNS assay; format: physicochemical; details: for ΔpKa: difference of calculated and measured pKa; for pKa: TNS assay
# Description: c Log D and c-pKa were calculated as noted above. The measured pKa of a lipid was determined as formulated in a lipid nanoparticle using the TNS assay as described in the following Example.
# The apparent pKa of ionizable lipid in the lipid nanoparticle was determined using 6-(p-toluidino)-2-naphthalenesulfonic acid sodium salt (TNS salt, Toronto Research Chemicals, Toronto, ON, Canada). Lipid nanoparticles were diluted in 1×Dulbecco's PBS to a concentration of 1 mM total lipids. TNS salt was prepared as a 1 mg/mL stock solution in DMSO and then further diluted using distilled water to a working solution of 60 μg/mL ([…]). Diluted lipid nanoparticle samples were further diluted to 90 μM total lipids in 165 μL of buffered solution containing 10 mM HEPES, 10 mM MES, 10 mM ammonium acetate, 130 mM NaCl, and final TNS concentration of 1.33 μg/mL (4 μM) with the pH ranging from 3.5 to 12.2. Following pipette mixing and incubation at room temperature in the dark for 15 min, fluorescence intensity was measured at room temperature in a BioTek Synergy H1 plate reader using excitation and emission wavelengths of 321 and 445 nm, respectively. The fluorescence signal was blank subtracted and plotted as a function of the pH, then analyzed using a nonlinear (Boltzmann) regression analysis with the apparent pKa determined as the pH giving rise to half maximal fluorescence intensity as calculated by the Henderson-Hasselbalch equation.
# [2] = physical-chemical properties of CD5-targeted tLNP encapsulating mCherry mRNA; format: physicochemical; details: for Hydrodynamic diameter: anti-CD5 tLNP: ionizable lipid/DSPC/cholesterol/DMG-PEG 2000/DSPE-PEG2000-Maleimide 50:10:38.5:1.4:0.1; for Hydrodynamic diameter / PDI (polydispersity index): DLS; for PDI (polydispersity index) / Encapsulation Efficiency: anti-CD5 tLNP; for Encapsulation Efficiency: RiboGreen assay
# Description: CleanCap® mCherry 5-methoxyuridine (5moU) mRNA (L-7203) was purchased from TriLink. mRNA was encapsulated in LNP using a self-assembly process in which an aqueous solution of mRNA at pH=3.5 is rapidly mixed with a solution of lipids dissolved in ethanol, then followed by stepwise phosphate and Tris buffer dilution and TFF purification. LNP composition in this study was: ionizable cationic lipid/distearoylphosphatidylcholine/cholesterol/DMG-PEG 2000/distearoylphosphatidyl ethanolamine(DSPE)-PEG2000-Maleimide (50:10:38.5:1.4:0.1 mol/mol) and were encapsulated at an N/P ratio (the ratio of positively-chargeable […] amine (N=nitrogen) groups to negatively-charged nucleic acid phosphate (P) groups) at 6. The hydrodynamic diameter of the nanoparticles was measured by dynamic light scattering using a Zetasizer Nano ZS (Malvern Instruments Ltd., Malvern, UK) instrument.
# Next, an anti-CD5 mAb was conjugated to the above LNP to generate tLNP. Purified rat anti-mouse CD5 antibody, clone 53-7.3 (BioLegend), was coupled to LNP via N-succinimidyl S-acetylthioacetate (SATA)-maleimide conjugation chemistry. Briefly, LNPs with DSPE-PEG(2000)-maleimide incorporated were formulated and stored at 4° C. on the day of conjugation. The antibody was modified with SATA (Sigma-Aldrich) to introduce sulfhydryl groups at accessible lysine residues allowing conjugation to maleimide. SATA was deprotected using 0.5 M hydroxylamine followed by removal of the unreacted components by G-25 Sephadex Quick Spin Protein columns (Roche Applied Science, Indianapolis, IN). The reactive sulfhydryl group on the antibody was then conjugated to maleimide moieties on the LNPs using thioether conjugation chemistry. Purification was performed using Sepharose CL-4B gel filtration columns (Sigma-Aldrich). tLNPs (LNPs conjugated with a targeting antibody) were frozen at −80° C. Others have conjugated antibody to free functionalized PEG-lipid and then incorporated the conjugated lipid into pre-formed LNP.
# mRNA content was determined using a Quant-iT™ RiboGreen RNA assay kit (Invitrogen™). Encapsulation efficiency was calculated by determining the unencapsulated mRNA content by measuring the fluorescence intensity (Fi) upon the addition of RiboGreen reagent to the LNP and comparing this value to the total fluorescence intensity (Ft) of the RNA content that is obtained upon lysis of the LNPs by 1% Triton X-100, where % encapsulation=(Ft−Fi)/Ft x 100).
# The particle size (hydrodynamic diameter) and polydispersity index of the targeted lipid nanoparticles were determined using dynamic light scattering (DLS) on a Malvern Zetasizer Nano ZS (Malvern Instruments, Worcestershire, UK). Size measurement was carried out in pH 7.4 Tris buffer at 25° C. in relevant disposable capillary cells. A non-invasive back scatter system (NIBS) with a scattering angle of 173° was used for size measurements.
# [3] = ex vivo stability in mouse plasma; format: in vitro ADME; details: CD-1 mouse plasma, 37° C., 1 μM lipid
# Description: To determine the stability of the disclosed lipids in mouse plasma lipid stock solution was prepared by dissolution of the lipid in isopropanol at the concentration of 5 mg/mL. A requisite volume of the lipid-isopropanol solution was then diluted to 100 μM concentration at a total volume of 10.0 mL with 50:50 (v/v) ethanol/water. Ten microliters of this 100 μM solution was spiked into 10.0 mL of mouse plasma (BioIVT, Lot MSE394920, CD-1 mouse, anticoagulant: sodium heparin, not filtered) that was prewarmed to 37° C. and stirred at 50 rpm with a magnetic stir bar. The starting concentration of lipids in plasma was thus 1 μM. Aliquots (50 μL) were taken after 0, 15, 30, 45, 60, and 120 minutes, transferred to microcentrifuge tubes and quenched with three volumes (150 μL) of ice cold acetonitrile/methanol (4:1). Positive control incubations utilized the same plasma, with Benfluorex (1 μM) as the substrate with Labetalol (1.0 μgl) as the in situ disappearance. The quenched solutions were vortexed, centrifuged for 5 minutes at 13,000 rpm, and supernatant (100 μL) transferred to a 96-well plate and diluted with water (200 μL, 0.1% FA). After filtration through a 0.45 μm 96-well filtering plate, the filtrates were analyzed by LC-MS (Waters AQUITY I-class UPLC system, ThermoScientific Vanquish UPLC system consisting of a binary pump, autosampler, and column compartment, Waters Xevo G2-XS QT of mass spectrometer; Phenomenex F5, 1.7 μm, 2.1×50 mm column). Mobile phase A was 0.1% formic acid in water, and mobile phase B was 0.1% formic acid in acetonitrile. The flow rate was 0.6 mL/min. Elution gradient was as follows: time, 0.5 min: 20% B; 0.5-2 min: 20-100% B; 2-4.8 min: 100% B; 4.8-5.45 min: 100-20% B. Mass spectrometry was in positive scanning mode from 600-1100 m/z. The peak of the molecular ion of the lipids was integrated in extracted ion chromatography (XIC) using Xcalibur software (Thermo Fisher). The relative peak area compared to T=0, after normalization by the peak area of the internal standard, was used as the percentage of the lipid remaining at each time point. T1/2 values were calculated using the first-order decay model.
# [4] = physical-chemical properties of LNP encapsulating mCherry mRNA; format: physicochemical; details: for Encapapsulation Efficiency / PDI (polydispersity index): LNP 50:10:38.5:1.5, mCherry mRNA; for Encapapsulation Efficiency / Hydrodynamic diameter: N/P 6; for PDI (polydispersity index) / Hydrodynamic diameter: DLS; for Hydrodynamic diameter: LNP: ionizable lipid/DSPC/cholesterol/DMG-PEG2000 50:10:38.5:1.5, mCherry mRNA, pH 7.4 Tris, 25° C.
# Description: The mRNA was encapsulated in LNP using a self-assembly process in which an aqueous solution of mRNA at pH=3.5 is rapidly mixed with a solution of lipids dissolved in ethanol, then followed by stepwise phosphate and Tris buffer dilution and tangential flow filtration (TFF) purification. LNP composition in this study was: ionizable cationic lipid/distearoylphosphatidylcholine/cholesterol/DMG-PEG2000 (50:10:38.5:1.5 mol/mol) and were encapsulated at an N/P ratio (the ratio of positively-chargeable lipid amine (N=nitrogen) groups to negatively-charged nucleic acid phosphate (P) groups) at 6. LNPs were frozen at −80° C. […] The diameter of the nanoparticles was measured by dynamic light scattering using a Zetasizer Nano ZS (Malvern Instruments Ltd., Malvern, UK) instrument. Size measurement was carried out in pH 7.4 Tris buffer at 25° C. in relevant disposable capillary cells. A non-invasive back scatter system (NIBS) with a scattering angle of 173° was used for size measurements.
# [5] = ionizable lipid in tLNP, read-out: Measured pKa
# [6] = measured, lipid formulated in a lipid nanoparticle, read-out: pKa
Structure (SMILES),ΔpKa [1],"pKa [1, 5]","pKa [1, 6]",Hydrodynamic diameter [2],PDI (polydispersity index) [2],Encapsulation Efficiency [2],ex vivo Mouse Plasm Stability % Remaining at 2 Hours [3],Encapapsulation Efficiency [4],PDI (polydispersity index) [4],Hydrodynamic diameter [4]
CCCCCCCCC(=O)OCC(COC(=O)CCCCCCCC)CC(=O)OCCN(CCOC(=O)CC(COC(=O)CCCCCCCC)COC(=O)CCCCCCCC)C(=O)OCCCN(C)C [Compound A-12],1.91,7.35,7.35,98 nm,0.07,92%,85%,91%,0.04,104 nm
CCCCCCCCC(=O)OCC(COC(=O)CCCCCCCC)CC(=O)OCCN(CCOC(=O)CC(COC(=O)CCCCCCCC)COC(=O)CCCCCCCC)C(=O)NCCN(C)C [Compound A-13],0.80,7.51,7.51,100 nm,0.10,99%,64%,99%,,101 nm
CCCCCCCCC(=O)OCC(COC(=O)CCCCCCCC)CC(=O)OCCN(CCOC(=O)CC(COC(=O)CCCCCCCC)COC(=O)CCCCCCCC)C(=O)N(C)CCN(C)C [Compound A-14],0.91,7.46,7.46,100 nm,0.05,95%,61%,91%,0.03,127 nm
CCCCCCCCC(=O)OCC(COC(=O)CCCCCCCC)CC(=O)OCCN(CCOC(=O)CC(COC(=O)CCCCCCCC)COC(=O)CCCCCCCC)C(=O)N(C)CCCN(C)C [Compound A-15],1.18,8.37,8.37,136 nm,0.15,98%,69%,99%,0.07,97 nm
